{"source": "patent US10723730B2", "about": "“Solid forms of a selective CDK4/6 inhibitor” (PFIZER INC., priority 2013, dated 2020)", "key": {"[1]": {"assay": "small-scale crystallization studies", "assay_type": "physicochemical", "details": "50 mg/mL, 10 mg scale, warmed to reflux", "experimental": "A series of small-scale crystallization experiments was run to identify a potential recrystallization solvent system as well as to assess the impact of solvent on the shape of the free base primary particles isolated. An initial set of 14 screening studies were run on a 10 mg scale using sealed vials and an external heat source to warm the 50 mg/mL samples up to reflux temperature. Visual observation identified the samples that went into solution, and photomicroscopy was used to characterize the particles produced."}, "[2]": {"assay": "kinetic solubility measurements (dissolution temperature)", "assay_type": "physicochemical", "details": "25 mg/mL, max 110° C.", "experimental": "In an initial room temperature solubility screening study, a total of 23 solvents were screened. […] Subsequent targeted higher temperature solubility studies were conducted."}, "[3]": {"assay": "UPLC/MS testing of the saturated solution", "assay_type": "physicochemical", "details": "saturated solution from experiments #3 (NMP) and #11 (10% n-BuOH/NMP) of Table 6"}, "[4]": {"assay": "particle size analysis by laser diffraction", "assay_type": "physicochemical", "experimental": "Particle sizes for the recrystallized materials were assessed using laser diffraction methods. Laser diffraction is recognized by standards and guidance agencies including ISO and ASTM and is widely used to determine particle size distributions. In conducting the assessment, the sample is passed through a laser beam which results in laser light scattered at a range of angles. Detectors placed at fixed angles measure the intensity of light scattered at that position. A mathematical model (Mie or Fraunhoffer Theory) is then applied to generate a particle size distribution.\nThe particle size was analyzed using the laser diffraction (or small angle light scattering) technique by dispersing the dry sample powder with compressed air. Specifically, the particle size distribution was analyzed using the Sympatec HELOS RODOS system equipped with a Vibri dry powder feeder. The powder sample was dispersed with a dispersion pressure of 0.5 bar. In some instances, an Aspiros micro-dosing device was used, and the powder sample was dispersed with a dispersion pressure of 0.2 bar. A suitable lens was selected to cover the particle size range of each sample."}, "[5]": {"assay": "MASS (Material Adhesion Screen for Sticking) Punch", "assay_type": "physicochemical", "details": "10% API in standard blend (89.75% Avicel PH102, 0.25% magnesium stearate); up to 100 compressions", "text": "The MASS (Material Adhesion Screen for Sticking) Punch was developed in-house to quantitatively assess the sticking propensity of tablet formulations by weighing the amount of adhered powder on removable punch tip after a series of compressions. This test enables formulators to objectively and quickly evaluate the risk of punch sticking during drug product development and troubleshoot sticking observed during clinical tablet manufacturing. To prepare the sample for MASS Punch testing, 10 g of API was diluted in a lightly lubricated standard blend (10% API, 89.75% Avicel PH102 and 0.25% magnesium stearate) and bottle blended (500 mL amber glass bottle) for 500 rotations. The weight of powder adhered to the removable punch tip (½″ round flat faced) was assessed using a microbalance periodically up to 100 compressions of ˜250 mgW tablets at a target solid fraction of 0.85."}, "[6]": {"assay": "physical properties of free base isolated from standard salt break process", "assay_type": "physicochemical", "details": "free base isolated directly from a standard salt break process", "text": "As punch sticking is related to API surface area, API particle size control is critical for minimizing sticking during drug product manufacturing. […] Free base API with similarly poor physical properties was produced by free basing of the existing isethionate salt API or by neutralization of the in situ salt formed in the final step of the API synthesis. In either process, small API primary particles were produced due to the rapid crystallization caused by the dramatic change in solubility with adjustment of the pH."}, "[7]": {"details": "free base prepared by traditional salt break procedure; cited from earlier work"}}, "data": [{"smiles": "CC(=O)c1c(C)c2cnc(Nc3ccc(N4CCNCC4)cn3)nc2n(C2CCCC2)c1=O", "note": "[compound 1, 6-acetyl-8-cyclopentyl-5-methyl-2-(5-piperazin-1-yl-pyridin-2-ylamino)-8H-pyrido[2,3-d]pyrimidin-7-one]", "values": [{"measurement": "Results of recrystallization", "setting": "[1]; Anisole", "value": "large particles (lathes or tomahawk shape)"}, {"measurement": "Results of recrystallization", "setting": "[1]; Chlorobenzene", "value": "small irregular shaped particles"}, {"measurement": "Results of recrystallization", "setting": "[1]; Cyclopentylmethyl ether", "value": "did not dissolve"}, {"measurement": "Results of recrystallization", "setting": "[1]; DMF", "value": "small needle shaped particles"}, {"measurement": "Results of recrystallization", "setting": "[1]; Mesitylene", "value": "small needle shaped particles"}, {"measurement": "Results of recrystallization", "setting": "[1]; NMP", "value": "small irregular shaped particles"}, {"measurement": "Results of recrystallization", "setting": "[1]; Propylene glycol", "value": "small irregular shaped particles"}, {"measurement": "Results of recrystallization", "setting": "[1]; Pyridine", "value": "small lathe shaped particles"}, {"measurement": "Results of recrystallization", "setting": "[1]; Sulfolane", "value": "small irregular shaped particles"}, {"measurement": "Results of recrystallization", "setting": "[1]; Toluene", "value": "did not dissolve"}, {"measurement": "Results of recrystallization", "setting": "[1]; Trifluorotoluene", "value": "did not dissolve"}, {"measurement": "Results of recrystallization", "setting": "[1]; m-Xylene", "value": "small/medium tomahawk shaped particles"}, {"measurement": "Results of recrystallization", "setting": "[1]; n-Butanol", "value": "did not dissolve"}, {"measurement": "Results of recrystallization", "setting": "[1]; n-Butyl Acetate", "value": "did not dissolve"}, {"measurement": "Dissolution Temp.", "setting": "[2]; 1:1:8 propylene glycol/n-BuOH/anisole (v/v)", "value": 91.2, "unit": "°C"}, {"measurement": "Dissolution Temp.", "setting": "[2]; 2:1:7 propylene glycol/n-BuOH/anisole (v/v)", "value": 84.1, "unit": "°C"}, {"measurement": "Dissolution Temp.", "setting": "[2]; 10% 1,4-butanediol/anisole (v/v)", "value": 109.8, "unit": "°C"}, {"measurement": "Dissolution Temp.", "setting": "[2]; 10% n-BuOH/Anisole (v/v)", "value": ">110", "unit": "° ° C."}, {"measurement": "Dissolution Temp.", "setting": "[2]; 10% n-BuOH/NMP (v/v)", "value": 103.7, "unit": "°C"}, {"measurement": "Dissolution Temp.", "setting": "[2]; 20% n-BuOH/Anisole (v/v)", "value": 109.7, "unit": "°C"}, {"measurement": "Dissolution Temp.", "setting": "[2]; 25% 1,4-butanediol/anisole (v/v)", "value": 104.8, "unit": "°C"}, {"measurement": "Dissolution Temp.", "setting": "[2]; 25% n-BuOH/NMP (v/v)", "value": ">110", "unit": "° ° C."}, {"measurement": "Dissolution Temp.", "setting": "[2]; 40% n-BuOH/Anisole (v/v)", "value": 101.4, "unit": "°C"}, {"measurement": "Dissolution Temp.", "setting": "[2]; Anisole", "value": ">110", "unit": "° ° C."}, {"measurement": "Dissolution Temp.", "setting": "[2]; DMAc", "value": ">110", "unit": "° ° C."}, {"measurement": "Dissolution Temp.", "setting": "[2]; DMF", "value": ">110", "unit": "° ° C."}, {"measurement": "Dissolution Temp.", "setting": "[2]; DMSO", "value": ">110", "unit": "° ° C."}, {"measurement": "Dissolution Temp.", "setting": "[2]; NMP", "value": 97.9, "unit": "°C"}, {"measurement": "Dissolution Temp.", "setting": "[2]; n-BuOH", "value": ">110", "unit": "° ° C."}, {"measurement": "Dissolution Temp.", "setting": "[2]; n-Butyl acetate", "value": ">110", "unit": "° ° C."}, {"measurement": "chemical stability in solution (impurity peak by UPLC/MS)", "setting": "[3]", "value": "degradation occurred"}, {"measurement": "Particle size D [4, 3]", "setting": "[4]; 0.2 Bar ASPIROS dispersion", "value": 21.33, "unit": "μm"}, {"measurement": "Particle size D [v, 0.1]", "setting": "[4]; 0.2 Bar ASPIROS dispersion", "value": 5.21, "unit": "μm"}, {"measurement": "Particle size D [v, 0.5]", "setting": "[4]; 0.2 Bar ASPIROS dispersion", "value": 17.00, "unit": "μm"}, {"measurement": "Particle size D [v, 0.9]", "setting": "[4]; 0.2 Bar ASPIROS dispersion", "value": 43.59, "unit": "μm"}, {"measurement": "D90", "setting": "[4]; Table 11", "value": "approximately 45 μm"}, {"measurement": "MASS Punch profile (sticking propensity)", "setting": "[5]", "value": "positive response"}, {"measurement": "size of hard agglomerates", "setting": "[6]", "value": "approximately 500 microns"}, {"measurement": "bioavailability in animal studies", "setting": "[7]", "value": "low"}]}]}
